Experimental data: publication PMC11562788, “Insights into the Hierarchical Assembly of a Chemically Diverse Peptide Hydrogel Derived from Human Semenogelin I” (ACS Nano, 2024)
“And” between values parts separate entries of the source, which are not always exact repeats. Equal values may be shown once. “Also recorded” adds a separate entry of the source. Residues, ends and D or L forms follow the SMILES beside them.

Columns and labels:
[1] = FTIR amide I: β-sheet self-assembly; type: physicochemical; settings: D2O, ambient temperature; for Persistence of the β-sheet structure over time by FTIR: 0 h to 1 week or longer, pH as in the words
Procedure: (§1) All samples were prepared in nonstick Eppendorf tubes (Axygen, Inc.). Prior to the final sample preparation (for all FTIR samples and when otherwise stated), the TFA counteranions present in the peptide sample after HPLC purification were exchanged for chloride using the following protocol: lyophilized peptide was dissolved in deionized D2O (1.0 mL). HCl was added at a molar ratio of 13.7:1 HCl:peptide. For the Phe^CN mutants, the sample was divided into two groups and lyophilized. One sample was then redissolved in H2O (to avoid obscuring the O–D stretches in the nitrile region) and the other in D2O (to avoid overlapping of the O-H bending vibrations in the amide I region) to a final concentration of 2.0 mM, unless otherwise specified. All other peptide samples were redissolved in D2O. The exchange of TFA^– to chloride may be verified by a lack of signal at 1672 cm^–1, seen in the IR spectrum for the deuterium-exchanged TFA salt of P3, where the carbonyl signal from TFA is well separated from the amide I carbonyl high frequency stretch at 1684 cm^–1 (Figure S1). On the day of the peptide sample preparation, D2O was placed in an Eppendorf tube, was then used as background when collecting data points (0 h, 48 h, 1 week, etc.), and was assumed to absorb the same amount of H2O over time as the peptide sample prepared on the same day. The concentration of the peptide solutions was verified with the UV–vis absorbance peak at 280 nm using a molar absorptivity of 2560 M^–1 cm^–1 for all sequences (P0–P7). The pH/pD of the samples was then corrected to 8.0 using small volumes of NaOH and HCl (or NaOD and DCl). After attaining the desired pH/pD, samples were incubated at ambient temperature (ca. 22 °C) and followed over 7 days (or as specified) to allow for hydrogelation.
FT IR was performed with a Bruker Vertex 70 spectrometer with a photovoltaic mercury cadmium telluride (MTC) detector. Before the spectral collection, the MCT detector was cooled with liquid nitrogen. A background spectrum (see hydrogel sample preparation above) was collected (6 μL of H2O or D2O), and the collection chamber was purged for 15 min before 6 μL of sample was loaded in between two CaF2 windows and separated by a 50-μm Teflon spacer in a 25-mm diameter demountable liquid cell (Harrick Scientific). After purging again, the IR spectrum was collected with 512 scans, with a resolution of 2 cm^–1, from 900 cm^–1 to 4000 cm^–1 at time t = 0 h, 24 h, 48 h, and 1 week (and sometimes longer) after sample constitution, processed using OPUS spectroscopy software, and plotted with Origin or KaleidaGraph.

Solubility in water = type: physicochemical; settings: P7 and P8 not tested above 1.0 mM at pH 8
[2] = cited from earlier work
From the text: The present study targets a relatively complex 13-residue peptide for which we attempt to uncover the underlying chemical principles behind hydrogelation and correlations between sequence, structure, and bulk mechanical properties. The peptide is derived from the human protein semenogelin I (SgI), which is the main proteinaceous constituent in seminal plasma. SgI is also present in nonreproductive tissues including skeletal muscles, the trachea, and the gastrointestinal tract.[35] We previously reported that a short fragment of SgI forms a pH-responsive gel, similar in properties to the full-l ... || All FTIR measurements were collected on samples where a trifluoroacetate (TFA^–) to chloride ion exchange was performed to eliminate signals from the TFA^– carbonyl moiety in the amide I spectral region (Figure S1). FTIR spectra were collected for P0–P5 in D2O at six pD values (3.0, 5.0, 7.0, 8.0, 9.0, and 10.0) (Figures S2–S7). FTIR analysis for P6–P8 was performed at a pD of 8.0 (Figures S8–S10). The bulk of FTIR studies were performed at pD 8.0, as the optimum pH range for hydrogelati ...

[3] = SAXS/WAXS of fibrils, elliptical cylinder model fit; type: physicochemical; settings: for Repeated dimension of broad SAXS peak at q = 0.172 Å^–1: 7 days at 21 °C; for Repeated dimension of broad SAXS peak at q = 0.172 Å^–1 / Fibril axis ratio / Fibril cross-sectional area / Fibril minor radius (minor semiaxis): pH 8.0; for Fibril axis ratio / Fibril cross-sectional area / Fibril minor radius (minor semiaxis): SAXS, elliptical cylinder model fit, day 7 at 21 °C; for Repeat distance of sharp SAXS peak at q = 0.305 Å^–1: after 7 days of incubation at 21 °C
Procedure: Small- and wide-angle X-ray scattering (SAXS/WAXS) measurements were performed on a SAXSLabs Ganesha pinhole instrument (JJ X-ray System Aps) with an X-ray microsource (Xenocs) and a two-dimensional 300k Pilatus detector (Dectris Ltd., Switzerland). The wavelength, λ, used for all scattering experiments was 1.54 Å, and samples were measured at three sample-to-detector distances. All samples (200 μL) were loaded into a 1.5 mm diameter quartz capillary (Hilgenberg GmbH, Malsfeld, Germany), and the time-averaged scattering intensities were analyzed using a python code. The scattering intensity was corrected to an absolute scale by calibration against water. Supramolecular dimensions were extracted from SAXS data by using the SasView software and fitting the scattering curves to an elliptical-cylinder model (www.sasview.org).

[4] = Oscillatory and flow rheology of hydrogels; type: physicochemical; settings: for Change of storage modulus G′ over one week: 2.0 mM, pH 8.0, 24 h against 1 week at 21 °C; for Recovery of initial G′ within 2 min after strain-induced loss of gel character / Time to complete recovery of the initial G′: after flow curve deformation; for Recovery of initial G′ within 2 min after strain-induced loss of gel character / Time to complete recovery of the initial G′ / Strain above which gel character is lost (G″ > G′) / Strain up to which the gel is linearly viscoelastic / Angular frequency up to which G′ and G″ are frequency-independent: hydrogel after 1 week, 25 °C; for Strain above which gel character is lost (G″ > G′) / Strain up to which the gel is linearly viscoelastic: amplitude sweep 0.01–100% strain; for Slope of viscosity against shear rate (shear thinning): flow curve, hydrogel after 1 week at ambient temperature, measured at 25 °C; for Angular frequency up to which G′ and G″ are frequency-independent: frequency sweep 0.1–100 rad/s
Procedure: Rheology measurements were performed on an Anton Paar Physica MCR 301 instrument using a CP25-1 (diameter of 25 mm, angle of 1°) cone plate. A water trap was installed to prevent sample evaporation, and then, sample, 150–200 μL, was carefully plated on to the rheometer stage with a tipless 1 mL syringe to minimize gel deformation. Measurements were conducted with a […] gap size at a temperature of 25 °C. All rheological measurements were done at a frequency, ω, of 10 rad/s with data collection every 2 s. Samples were left for 1 h at a steady strain sweep, γ, of 0.5% (within the linear viscoelastic regime for all sequences) for the gel samples to recover a steady state fibril network, as observed by a stabilization in the value of G′. Subsequently, frequency sweep (0.1–100 rad/s), strain sweep (γ = 0.01–100%), and flow curve (0.1–50 s^–1) experiments were conducted. A time experiment in the linear viscoelastic regime (10 rad/s, 0.5%) for a 50 min period after the flow curve was used to estimate the recovery time of the hydrogels.

[5] = Hydrogelation and gel appearance by visual inspection; type: physicochemical; settings: for Colloidal stability / phase separation of the hydrogel: visual inspection after hydrogel preparation, pH/pD 8.0, 2.0 mM, ambient temperature
Procedure: All FTIR measurements were collected on samples where a trifluoroacetate (TFA^–) to chloride ion exchange was performed to eliminate signals from the TFA^– carbonyl moiety in the amide I spectral region (Figure S1). FTIR spectra were collected for P0–P5 in D2O at six pD values (3.0, 5.0, 7.0, 8.0, 9.0, and 10.0) (Figures S2–S7). FTIR analysis for P6–P8 was performed at a pD of 8.0 (Figures S8–S10). The bulk of FTIR studies were performed at pD 8.0, as the optimum pH range for hydrogelation is 7–9 for both SgI38–48[28] and P0.
as §1

## CC(=O)N[C@H](C(=O)N[C@@H](Cc1ccc(O)cc1)C(=O)N[C@@H](Cc1c[nH]cn1)C(=O)N[C@H](C(=O)N[C@@H](CC(=O)O)C(N)=O)C(C)C)[C@@H](C)O [P8] (Ac-TYHVD-NH2)
[1]; pD 8.0, 2.0 mM (P7, P8 and F40FCN 1.0 mM)
  β-Sheet secondary structure (self-assembly) by FTIR amide I: no sign of a β-sheet secondary structure; also recorded: unstructured
Solubility in water
  Solubility in water (in words): low solubility

## CC[C@H](C)[C@H](NC(=O)[C@H](CO)NC(=O)[C@H](Cc1ccccc1)NC(=O)[C@H](CO)NC(=O)CNC(C)=O)C(=O)N[C@@H](CCC(N)=O)C(=O)N[C@@H](Cc1ccc(O)cc1)C(=O)N[C@H](C(=O)N[C@@H](Cc1ccc(O)cc1)C(=O)N[C@@H](Cc1c[nH]cn1)C(=O)N[C@H](C(N)=O)C(C)C)[C@@H](C)O [SgI38–48, AcNH–GSFSIQYTYHV–CONH2] (Ac-GSFSIQYTYHV-NH2)
[2]
  Optimum pH range for hydrogelation: 7–9
[2]; physiological conditions
  Concentration at which the peptide self-assembles into a hydrogel network: 0.5 % w/v
Solubility in water
  Solubility in water (in words): limited solubility in water

## CC[C@H](C)[C@H](NC(=O)[C@H](CO)NC(=O)[C@H](Cc1ccccc1)NC(=O)[C@H](CO)NC(C)=O)C(=O)N[C@@H](CCC(N)=O)C(=O)N[C@@H](Cc1ccc(O)cc1)C(=O)N[C@H](C(=O)N[C@@H](Cc1ccc(O)cc1)C(=O)N[C@@H](Cc1c[nH]cn1)C(=O)N[C@H](C(=O)N[C@@H](CC(=O)O)C(N)=O)C(C)C)[C@@H](C)O [P2] (Ac-SFSIQYTYHVD-NH2)
[3]; 2.0 mM
  Repeated dimension of broad SAXS peak at q = 0.172 Å^–1: 3.7 nm
  Fibril axis ratio: 3.5
  Fibril cross-sectional area: 35.6 nm^2
  Fibril minor radius (minor semiaxis): 1.8 nm
[4]
  Change of storage modulus G′ over one week: modestly increases
  Recovery of initial G′ within 2 min after strain-induced loss of gel character: ca. 75%
  Time to complete recovery of the initial G′: 30 min
  Strain above which gel character is lost (G″ > G′): above 10 % strain
  Strain up to which the gel is linearly viscoelastic: up to 2 % strain
  Slope of viscosity against shear rate (shear thinning): ca. −1.1
  Angular frequency up to which G′ and G″ are frequency-independent: up to 20 rad/s
[4]; after 1 week of incubation
  G′ of P2 relative to P3: close to an order of magnitude higher than P3

## CC[C@H](C)[C@H](NC(=O)[C@H](CO)NC(=O)[C@H](Cc1ccccc1)NC(=O)[C@H](CO)NC(=O)CNC(C)=O)C(=O)N[C@@H](CCC(N)=O)C(=O)N[C@@H](Cc1ccc(O)cc1)C(=O)N[C@H](C(=O)N[C@@H](Cc1ccc(O)cc1)C(=O)N[C@@H](Cc1c[nH]cn1)C(=O)N[C@H](C(=O)N[C@@H](CC(=O)O)C(N)=O)C(C)C)[C@@H](C)O [P1] (Ac-GSFSIQYTYHVD-NH2)
[3]; 2.0 mM
  Fibril axis ratio: 2.5
  Fibril cross-sectional area: 17.7 nm^2
  Fibril minor radius (minor semiaxis): 1.5 nm
[5]; pD 8.0 hydrogels
  Gel robustness as noticed in handling: less stable gel than P0, P2 and P3
[1]
  Persistence of the β-sheet structure over time by FTIR: is lost over time

## CC[C@H](C)[C@H](NC(=O)[C@H](CO)NC(=O)[C@H](Cc1ccccc1)NC(C)=O)C(=O)N[C@@H](CCC(N)=O)C(=O)N[C@@H](Cc1ccc(O)cc1)C(=O)N[C@H](C(=O)N[C@@H](Cc1ccc(O)cc1)C(=O)N[C@@H](Cc1c[nH]cn1)C(=O)N[C@H](C(=O)N[C@@H](CC(=O)O)C(N)=O)C(C)C)[C@@H](C)O [P3] (Ac-FSIQYTYHVD-NH2)
[3]; 2.0 mM
  Repeated dimension of broad SAXS peak at q = 0.172 Å^–1: 3.7 nm
  Fibril axis ratio: 3.2
  Fibril cross-sectional area: 32.6 nm^2
  Fibril minor radius (minor semiaxis): 1.8 nm
[4]
  Change of storage modulus G′ over one week: significantly increases
  Recovery of initial G′ within 2 min after strain-induced loss of gel character: ca. 60%
  Time to complete recovery of the initial G′: 45 min
  Strain above which gel character is lost (G″ > G′): > 60 % strain
  Strain up to which the gel is linearly viscoelastic: ≤ 10 % strain
  Slope of viscosity against shear rate (shear thinning): ca. −1.1
  Angular frequency up to which G′ and G″ are frequency-independent: up to 20 rad/s

## CC[C@H](C)[C@H](NC(=O)[C@H](CO)NC(C)=O)C(=O)N[C@@H](CCC(N)=O)C(=O)N[C@@H](Cc1ccc(O)cc1)C(=O)N[C@H](C(=O)N[C@@H](Cc1ccc(O)cc1)C(=O)N[C@@H](Cc1c[nH]cn1)C(=O)N[C@H](C(=O)N[C@@H](CC(=O)O)C(N)=O)C(C)C)[C@@H](C)O [P4] (Ac-SIQYTYHVD-NH2)
[3]; 2.0 mM
  Fibril axis ratio: 2.1
  Fibril cross-sectional area: 59.4 nm^2
  Fibril minor radius (minor semiaxis): 3.0 nm and 3 nm
[3]; WAXS, q = 1.3 Å^–1 (P0–P3) or 1.05 Å^–1 (P4–P6), 2.0 mM, pH 8.0, 21 °C
  Periodic repeat distance from WAXS peak: 6.0 Å
[3]
  Repeat distance of sharp SAXS peak at q = 0.305 Å^–1: 2.1 nm
[5]
  Colloidal stability / phase separation of the hydrogel: colloidally unstable and undergoes phase separation
[1]
  Persistence of the β-sheet structure over time by FTIR: sheet structure is lost within 1 week

## CC(=O)N[C@@H](CCC(N)=O)C(=O)N[C@@H](Cc1ccc(O)cc1)C(=O)N[C@H](C(=O)N[C@@H](Cc1ccc(O)cc1)C(=O)N[C@@H](Cc1c[nH]cn1)C(=O)N[C@H](C(=O)N[C@@H](CC(=O)O)C(N)=O)C(C)C)[C@@H](C)O [P6] (Ac-QYTYHVD-NH2)
[3]; 2.0 mM
  Fibril axis ratio: 1.9
  Fibril cross-sectional area: 57.4 nm^2
  Fibril minor radius (minor semiaxis): 3.1 nm
[3]
  Repeat distance of sharp SAXS peak at q = 0.305 Å^–1: 2.1 nm
[5]
  Colloidal stability / phase separation of the hydrogel: colloidally unstable and undergoes phase separation
[5]; visual inspection, peptide in water/D2O, pH/pD 8.0, 2.0 mM (P7 1.0 mM), ambient temperature ca. 22 °C, up to 7 days
  Hydrogel formation: forms a hydrogel
